# Experimental data reported in patent US20220281825A1 (priority 2016, published 2022).
# What was measured:
# [1] = system: LASV-p; assay: organism not typed; format: cell-based, Lassa (LASV); conditions: Vero, 24 h, read-out: LASV-p EC50 (nM)
# [2] = system: JUNV-p; assay: organism not typed; format: cell-based, Junin (JUNV); conditions: Vero, 24 h, read-out: JUNV-p EC50 (nM)
# [3] = in vitro; conditions: African green monkey
# [4] = system: TCRV-p; assay: organism not typed; format: cell-based; conditions: Vero, 24 h, read-out: TCRV-p EC50 (nM)
# [5] = system: MACV-p; assay: organism not typed; format: cell-based, Machupo (MACV); conditions: Vero, 24 h, read-out: MACV-p EC50 (nM)
Compound,EC50 [1] [nM],EC50 [2] [nM],CC50 [3] [nM],EC50 [4] [nM],EC50 [5] [nM]
"COc1ccc(-n2cnc3ccc(-c4ccc(CO)cc4)cc32)cc1 [Example A10, {4-[1-(4-methoxyphenyl)-1H-1,3-benzodiazol-6-yl]phenyl}methanol]",21.8,> 25,4560,> 25,> 25
"COc1ccc(-n2cnc3ccc(-c4ccc(O)cc4)cc32)cc1 [Example A13, 4-[1-(4-methoxyphenyl)-1H-1,3-benzodiazol-6-yl]phenol]",5,> 25,1270,> 25,> 25
"COc1ccc(-n2cnc3ccc(-c4ccc(C(C)=O)cc4)cc32)cc1 [Example A14, 1-{4-[1-(4-methoxyphenyl)-1H-1,3-benzodiazol-6-yl]phenyl}ethan-1-one]",7.4,> 25,1950,> 25,> 25
"COc1ccc(-n2cnc3ccc(-c4ccc(N5CCCCC5)cc4)cc32)cc1 [Example A15, 1-(4-methoxyphenyl)-6-[4-(piperidin-1-yl)phenyl]-1H-1,3-benzodiazole]",14.7,2.23,12900,29.6,24.9
"CC(C)Oc1ccc(-n2cnc3ccc(-c4ccc(N5CCOCC5)cc4)cc32)cc1 [Example A21, 6-[4-(morpholin-4-yl)phenyl]-1-[4-(propan-2-yloxy)phenyl]-1H-1,3-benzodiazole]",3.07,3.5,5220,> 25,14.4
"CC(C)Oc1ccc(-c2ccc3ncn(-c4ccc5[nH]ccc5c4)c3c2)cc1 [Example A27, 1-(1H-indol-5-yl)-6-[4-(propan-2-yloxy)phenyl]-1H-1,3-benzodiazole]",0.6,0.39,3860,2.57,0.38
"CC(C)Oc1ccc(-n2cnc3ccc(-c4ccc5[nH]ccc5c4)nc32)cc1 [Example B3, 5-{3-[4-(propan-2-yloxy)phenyl]-3H-imidazo[4,5-b]pyridin-5-yl}-1H-indole]",1.01,1.79,> 100000,27.7,10.3
"CC(=O)c1ccc(-c2ccc3ncn(-c4ccc(OC(C)C)cc4)c3n2)cc1 [Example B4, 1-(4-{3-[4-(propan-2-yloxy)phenyl]-3H-imidazo[4,5-b]pyridin-5-yl}phenyl)ethan-1-one]",0.956,4.31,19700,14.9,18.6
"CC(C)Oc1ccc(-n2cnc3cnc(-c4ccc5[nH]ccc5c4)cc32)cc1 [Example B7, 5-{1-[4-(propan-2-yloxy)phenyl]-1H-imidazo[4,5-c]pyridin-6-yl}-1H-indole]",8.18,16.2,13900,> 25,24.1
"CC(C)Oc1ccc(-n2cnc3cnc(-c4ccc(C(C)(C)O)cc4)nc32)cc1 [Example B9, 2-(4-{9-[4-(propan-2-yloxy)phenyl]-9H-purin-2-yl}phenyl)propan-2-ol]",19.7,11.9,27700,> 25,29.7
"CC(C)Oc1ccc(-n2cnc3cnc(-c4ccc5[nH]ccc5c4)nc32)cc1 [Example B11, 2-(1H-indol-5-yl)-9-[4-(propan-2-yloxy)phenyl]-9H-purine]",6.4,25,24200,> 25,25
"CC(=O)c1ccc(-c2ccc3nnn(-c4ccc(OC(C)C)cc4)c3c2)cc1 [Example B14, 1-(4-{1-[4-(propan-2-yloxy)phenyl]-1H-1,2,3-benzotriazol-6-yl}phenyl)ethan-1-one]",1.05,1.36,7390,> 25,15.4
"CC(C)Oc1ccc(-c2cnc3ccc(-c4ccc(C(F)F)cc4)cn23)cc1 [Example C5, 6-[4-(difluoromethyl)phenyl]-3-[4-(propan-2-yloxy)phenyl]imidazo[1,2-a]pyridine]",4.1,9.09,4690,> 25,31.4
"CC(C)Oc1ccc(-c2cnc3ccc(-c4ccc5[nH]ncc5c4)cn23)cc1 [Example C10, 5-{3-[4-(propan-2-yloxy)phenyl]imidazo[1,2-a]pyridin-6-yl}-1H-indazole]",4.61,19,> 100,> 25,28.9
"CC(C)Oc1ccc(-c2cnc3ccc(-c4ccc(C5(O)COC5)cc4)cn23)cc1 [Example C28, 3-(4-{3-[4-(propan-2-yloxy)phenyl]imidazo[1,2-a]pyridin-6-yl}phenyl)oxetan-3-ol]",17.3,14.9,> 100000,> 25,> 25
"COCCOc1ccc(-c2cnc3ccc(-c4ccc(OC(C)C)cc4)cn23)cc1 [Example C42, 3-[4-(2-methoxyethoxy)phenyl]-6-[4-(propan-2-yloxy)phenyl]imidazo[1,2-a]pyridine]",3.08,2.6,5360,11.7,23.1
"CC(C)Oc1ccc(-c2ccc3ncc(-c4ccc(C5(O)CC5)cc4)n3c2)cc1 [Example C44, 1-(4-{6-[4-(propan-2-yloxy)phenyl]imidazo[1,2-a]pyridin-3-yl}phenyl)cyclopropan-1-ol]",0.23,0.07,> 100,0.135,0.32
"CC(C)Oc1ccc(-n2ncc3ccc(-c4ccc5[nH]ccc5c4)cc32)cc1 [Example D2, 6-(1H-indol-5-yl)-1-[4-(propan-2-yloxy)phenyl]-1H-indazole]",7.99,17.8,4340,> 25,22.5
"CC(=O)c1ccc(-c2ccc3cnn(-c4ccc(OC(C)C)cc4)c3c2)cc1 [Example D3, 1-(4-{1-[4-(propan-2-yloxy)phenyl]-1H-indazol-6-yl}phenyl)ethan-1-one]",7.04,20.2,15900,> 25,15.5
"CC(C)Oc1ccc(-n2ccc3ccc(-c4ccc5[nH]ccc5c4)cc32)cc1 [Example D5, 6-(1H-indol-5-yl)-1-[4-(propan-2-yloxy)phenyl]-1H-indole]",12.5,27.8,5.87,> 25,> 25
"CC(C)Oc1ccc(-c2nnc3ccc(-c4ccc5[nH]ccc5c4)cn23)cc1 [Example D7, 5-{3-[4-(propan-2-yloxy)phenyl]-[1,2,4]triazolo[4,3-a]pyridin-6-yl}-1H-indole]",4.1,18,1870,26.3,> 25
"CC(C)Oc1ccc(-c2cn3c(-c4ccc5[nH]ccc5c4)cnc3cn2)cc1 [Example D13, 5-{6-[4-(propan-2-yloxy)phenyl]imidazo[1,2-a]pyrazin-3-yl}-1H-indole]",12.3,3.29,> 100000,10.3,12
